Source: ChEMBL document CHEMBL1201862, “PubChem BioAssay data set” (2004)
The source made the active and inactive calls.

Assays:
[1] = target: T1, Short transient receptor potential channel 4 (Mus musculus, UniProt Q9QUQ5); assay: block of DAMGO-driven TRPC4 calcium entry – cell-based, HEK293 TRPC4/mu-opioid, Fluo-4 calcium, dose response (AID 434942); format: functional;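 note: potency of inhibitors blocking the TRPC4 calcium response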
T1 sequence (Q9QUQ5 whole entry): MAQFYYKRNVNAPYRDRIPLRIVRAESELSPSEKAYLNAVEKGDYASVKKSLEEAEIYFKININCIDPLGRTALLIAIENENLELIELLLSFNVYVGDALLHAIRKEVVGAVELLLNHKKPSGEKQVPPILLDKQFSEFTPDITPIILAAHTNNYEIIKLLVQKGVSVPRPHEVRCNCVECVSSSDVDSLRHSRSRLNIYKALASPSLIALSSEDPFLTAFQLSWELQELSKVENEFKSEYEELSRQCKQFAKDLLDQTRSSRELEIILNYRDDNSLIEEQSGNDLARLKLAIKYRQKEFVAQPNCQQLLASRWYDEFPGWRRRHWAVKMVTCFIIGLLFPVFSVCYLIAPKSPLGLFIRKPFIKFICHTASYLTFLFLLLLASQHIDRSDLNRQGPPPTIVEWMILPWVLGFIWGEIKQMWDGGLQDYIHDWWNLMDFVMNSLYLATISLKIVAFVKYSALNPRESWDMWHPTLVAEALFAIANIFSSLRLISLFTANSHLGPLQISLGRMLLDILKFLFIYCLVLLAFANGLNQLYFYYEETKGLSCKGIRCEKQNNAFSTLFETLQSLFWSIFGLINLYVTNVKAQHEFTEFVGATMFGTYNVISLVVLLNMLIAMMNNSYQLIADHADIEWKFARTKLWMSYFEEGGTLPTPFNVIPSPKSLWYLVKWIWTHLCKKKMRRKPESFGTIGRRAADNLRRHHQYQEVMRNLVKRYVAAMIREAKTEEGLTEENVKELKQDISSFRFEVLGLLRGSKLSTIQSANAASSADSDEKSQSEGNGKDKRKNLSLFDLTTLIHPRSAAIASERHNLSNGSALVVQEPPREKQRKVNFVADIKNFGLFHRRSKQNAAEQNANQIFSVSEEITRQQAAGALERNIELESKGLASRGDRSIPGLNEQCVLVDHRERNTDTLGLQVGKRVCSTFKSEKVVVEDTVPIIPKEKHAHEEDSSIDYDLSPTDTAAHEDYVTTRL

[2] = target: T2, Fatty acid synthase (Homo sapiens, UniProt P49327); assay: inhibition of human FAS-TE enzyme activity – biochemical, kinetic fluorescence intensity, dose response (AID 624326); format: functional;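 note: rate of fluorescence rise from hydrolysis of a fluorogenic O-methyl fluorescein ester substrate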
T2 sequence (P49327 whole entry): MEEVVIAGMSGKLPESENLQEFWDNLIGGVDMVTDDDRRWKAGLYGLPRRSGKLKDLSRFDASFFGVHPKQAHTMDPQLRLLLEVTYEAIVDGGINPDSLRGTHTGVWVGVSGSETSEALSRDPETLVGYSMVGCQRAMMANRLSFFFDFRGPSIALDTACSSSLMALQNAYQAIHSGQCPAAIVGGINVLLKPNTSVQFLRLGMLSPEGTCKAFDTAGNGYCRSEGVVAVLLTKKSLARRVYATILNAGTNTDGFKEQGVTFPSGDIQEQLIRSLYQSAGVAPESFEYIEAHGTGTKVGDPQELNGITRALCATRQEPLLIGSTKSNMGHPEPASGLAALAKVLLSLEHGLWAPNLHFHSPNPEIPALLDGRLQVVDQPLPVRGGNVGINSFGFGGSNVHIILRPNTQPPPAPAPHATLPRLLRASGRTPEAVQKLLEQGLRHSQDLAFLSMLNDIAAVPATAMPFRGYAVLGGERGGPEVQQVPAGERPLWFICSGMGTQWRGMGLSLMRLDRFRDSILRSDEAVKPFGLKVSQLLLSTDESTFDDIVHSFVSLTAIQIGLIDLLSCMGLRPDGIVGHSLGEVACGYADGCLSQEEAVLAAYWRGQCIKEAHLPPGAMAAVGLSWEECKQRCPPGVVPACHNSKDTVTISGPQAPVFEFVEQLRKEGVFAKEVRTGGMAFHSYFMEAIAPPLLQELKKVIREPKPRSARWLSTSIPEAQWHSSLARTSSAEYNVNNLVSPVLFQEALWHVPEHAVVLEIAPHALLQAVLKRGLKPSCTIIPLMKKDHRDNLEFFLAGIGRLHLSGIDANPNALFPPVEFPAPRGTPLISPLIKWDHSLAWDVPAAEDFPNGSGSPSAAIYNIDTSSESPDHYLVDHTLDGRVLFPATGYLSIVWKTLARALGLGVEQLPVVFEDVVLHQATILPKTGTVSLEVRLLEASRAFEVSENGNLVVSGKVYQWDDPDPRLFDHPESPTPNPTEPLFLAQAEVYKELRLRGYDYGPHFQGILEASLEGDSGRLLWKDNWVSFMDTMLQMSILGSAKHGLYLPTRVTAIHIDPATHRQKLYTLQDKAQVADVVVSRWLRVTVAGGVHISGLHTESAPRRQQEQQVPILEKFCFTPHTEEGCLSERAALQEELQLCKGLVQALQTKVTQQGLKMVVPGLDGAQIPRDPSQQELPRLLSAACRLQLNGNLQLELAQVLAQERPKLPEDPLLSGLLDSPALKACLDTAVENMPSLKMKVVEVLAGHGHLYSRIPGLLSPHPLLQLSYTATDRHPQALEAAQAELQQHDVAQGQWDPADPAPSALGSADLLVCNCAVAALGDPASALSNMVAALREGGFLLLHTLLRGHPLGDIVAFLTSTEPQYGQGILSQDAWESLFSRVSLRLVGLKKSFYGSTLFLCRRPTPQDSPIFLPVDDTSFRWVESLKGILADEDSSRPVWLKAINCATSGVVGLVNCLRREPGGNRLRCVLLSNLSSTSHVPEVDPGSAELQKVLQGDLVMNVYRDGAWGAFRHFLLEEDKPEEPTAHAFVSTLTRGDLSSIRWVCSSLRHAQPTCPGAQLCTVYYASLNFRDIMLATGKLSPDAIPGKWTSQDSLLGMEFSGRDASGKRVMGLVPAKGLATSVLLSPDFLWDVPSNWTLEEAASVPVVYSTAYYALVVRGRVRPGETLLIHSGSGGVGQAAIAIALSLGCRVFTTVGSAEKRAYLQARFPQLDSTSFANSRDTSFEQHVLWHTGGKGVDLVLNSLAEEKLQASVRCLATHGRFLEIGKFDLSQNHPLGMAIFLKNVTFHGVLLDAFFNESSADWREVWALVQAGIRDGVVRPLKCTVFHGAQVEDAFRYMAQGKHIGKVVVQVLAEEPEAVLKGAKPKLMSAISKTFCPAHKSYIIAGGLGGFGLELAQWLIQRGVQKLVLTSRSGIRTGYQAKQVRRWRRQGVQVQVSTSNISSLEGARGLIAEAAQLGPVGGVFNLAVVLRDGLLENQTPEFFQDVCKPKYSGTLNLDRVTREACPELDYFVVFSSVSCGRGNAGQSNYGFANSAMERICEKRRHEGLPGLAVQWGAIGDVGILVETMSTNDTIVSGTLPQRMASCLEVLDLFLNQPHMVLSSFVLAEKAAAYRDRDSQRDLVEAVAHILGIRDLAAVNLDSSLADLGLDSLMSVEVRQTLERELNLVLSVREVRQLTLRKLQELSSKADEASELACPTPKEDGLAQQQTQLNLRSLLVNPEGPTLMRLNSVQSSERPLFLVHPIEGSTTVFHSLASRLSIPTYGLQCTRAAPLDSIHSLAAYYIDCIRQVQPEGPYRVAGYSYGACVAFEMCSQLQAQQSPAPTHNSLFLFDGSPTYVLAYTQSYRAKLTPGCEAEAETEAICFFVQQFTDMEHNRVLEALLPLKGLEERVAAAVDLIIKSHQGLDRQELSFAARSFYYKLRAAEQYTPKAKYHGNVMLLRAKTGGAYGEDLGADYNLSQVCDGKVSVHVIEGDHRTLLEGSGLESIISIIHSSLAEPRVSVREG

[3] = target: T2, Fatty acid synthase; assay: inhibition of human FAS-TE enzyme activity – biochemical, endpoint fluorescence intensity, uHTS hits, dose response (AID 624327); format: functional;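 note: fluorescence from hydrolysis of an O-methyl fluorescein acyl ester substrate by the enzyme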
[4] = target: T3, Rac GTPase-activating protein 1 (Homo sapiens, UniProt Q9H0H5); assay: blockers of MgcRacGAP-driven Rac1 GTP hydrolysis – biochemical, ADP Hunter fluorescence, primary and confirmatory, confirmation (AID 624330); format: functional
T3 sequence (Q9H0H5 whole entry): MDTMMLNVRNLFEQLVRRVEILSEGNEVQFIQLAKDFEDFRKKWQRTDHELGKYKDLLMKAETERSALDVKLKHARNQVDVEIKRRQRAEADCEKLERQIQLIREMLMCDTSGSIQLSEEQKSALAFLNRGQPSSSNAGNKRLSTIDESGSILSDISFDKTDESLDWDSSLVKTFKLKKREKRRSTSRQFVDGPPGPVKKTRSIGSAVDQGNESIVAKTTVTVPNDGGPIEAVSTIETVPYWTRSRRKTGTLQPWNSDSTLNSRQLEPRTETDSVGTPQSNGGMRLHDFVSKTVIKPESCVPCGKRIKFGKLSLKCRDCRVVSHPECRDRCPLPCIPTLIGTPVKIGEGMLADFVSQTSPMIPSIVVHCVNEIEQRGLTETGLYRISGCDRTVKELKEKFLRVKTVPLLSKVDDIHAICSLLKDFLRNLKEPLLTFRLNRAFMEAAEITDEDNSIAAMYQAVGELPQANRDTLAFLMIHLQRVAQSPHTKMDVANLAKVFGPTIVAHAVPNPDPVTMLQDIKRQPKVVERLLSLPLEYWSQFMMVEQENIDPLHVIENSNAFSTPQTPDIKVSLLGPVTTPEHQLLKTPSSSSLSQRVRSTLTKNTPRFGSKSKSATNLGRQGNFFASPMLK

[5] = target: Voltage-dependent T-type calcium channel subunit alpha-1H (Homo sapiens, UniProt O95180); format: functional;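 note: channel activity triggered by adding a high calcium stimulation buffer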
Voltage-dependent T-type calcium channel subunit alpha-1H, sequence (O95180 whole entry): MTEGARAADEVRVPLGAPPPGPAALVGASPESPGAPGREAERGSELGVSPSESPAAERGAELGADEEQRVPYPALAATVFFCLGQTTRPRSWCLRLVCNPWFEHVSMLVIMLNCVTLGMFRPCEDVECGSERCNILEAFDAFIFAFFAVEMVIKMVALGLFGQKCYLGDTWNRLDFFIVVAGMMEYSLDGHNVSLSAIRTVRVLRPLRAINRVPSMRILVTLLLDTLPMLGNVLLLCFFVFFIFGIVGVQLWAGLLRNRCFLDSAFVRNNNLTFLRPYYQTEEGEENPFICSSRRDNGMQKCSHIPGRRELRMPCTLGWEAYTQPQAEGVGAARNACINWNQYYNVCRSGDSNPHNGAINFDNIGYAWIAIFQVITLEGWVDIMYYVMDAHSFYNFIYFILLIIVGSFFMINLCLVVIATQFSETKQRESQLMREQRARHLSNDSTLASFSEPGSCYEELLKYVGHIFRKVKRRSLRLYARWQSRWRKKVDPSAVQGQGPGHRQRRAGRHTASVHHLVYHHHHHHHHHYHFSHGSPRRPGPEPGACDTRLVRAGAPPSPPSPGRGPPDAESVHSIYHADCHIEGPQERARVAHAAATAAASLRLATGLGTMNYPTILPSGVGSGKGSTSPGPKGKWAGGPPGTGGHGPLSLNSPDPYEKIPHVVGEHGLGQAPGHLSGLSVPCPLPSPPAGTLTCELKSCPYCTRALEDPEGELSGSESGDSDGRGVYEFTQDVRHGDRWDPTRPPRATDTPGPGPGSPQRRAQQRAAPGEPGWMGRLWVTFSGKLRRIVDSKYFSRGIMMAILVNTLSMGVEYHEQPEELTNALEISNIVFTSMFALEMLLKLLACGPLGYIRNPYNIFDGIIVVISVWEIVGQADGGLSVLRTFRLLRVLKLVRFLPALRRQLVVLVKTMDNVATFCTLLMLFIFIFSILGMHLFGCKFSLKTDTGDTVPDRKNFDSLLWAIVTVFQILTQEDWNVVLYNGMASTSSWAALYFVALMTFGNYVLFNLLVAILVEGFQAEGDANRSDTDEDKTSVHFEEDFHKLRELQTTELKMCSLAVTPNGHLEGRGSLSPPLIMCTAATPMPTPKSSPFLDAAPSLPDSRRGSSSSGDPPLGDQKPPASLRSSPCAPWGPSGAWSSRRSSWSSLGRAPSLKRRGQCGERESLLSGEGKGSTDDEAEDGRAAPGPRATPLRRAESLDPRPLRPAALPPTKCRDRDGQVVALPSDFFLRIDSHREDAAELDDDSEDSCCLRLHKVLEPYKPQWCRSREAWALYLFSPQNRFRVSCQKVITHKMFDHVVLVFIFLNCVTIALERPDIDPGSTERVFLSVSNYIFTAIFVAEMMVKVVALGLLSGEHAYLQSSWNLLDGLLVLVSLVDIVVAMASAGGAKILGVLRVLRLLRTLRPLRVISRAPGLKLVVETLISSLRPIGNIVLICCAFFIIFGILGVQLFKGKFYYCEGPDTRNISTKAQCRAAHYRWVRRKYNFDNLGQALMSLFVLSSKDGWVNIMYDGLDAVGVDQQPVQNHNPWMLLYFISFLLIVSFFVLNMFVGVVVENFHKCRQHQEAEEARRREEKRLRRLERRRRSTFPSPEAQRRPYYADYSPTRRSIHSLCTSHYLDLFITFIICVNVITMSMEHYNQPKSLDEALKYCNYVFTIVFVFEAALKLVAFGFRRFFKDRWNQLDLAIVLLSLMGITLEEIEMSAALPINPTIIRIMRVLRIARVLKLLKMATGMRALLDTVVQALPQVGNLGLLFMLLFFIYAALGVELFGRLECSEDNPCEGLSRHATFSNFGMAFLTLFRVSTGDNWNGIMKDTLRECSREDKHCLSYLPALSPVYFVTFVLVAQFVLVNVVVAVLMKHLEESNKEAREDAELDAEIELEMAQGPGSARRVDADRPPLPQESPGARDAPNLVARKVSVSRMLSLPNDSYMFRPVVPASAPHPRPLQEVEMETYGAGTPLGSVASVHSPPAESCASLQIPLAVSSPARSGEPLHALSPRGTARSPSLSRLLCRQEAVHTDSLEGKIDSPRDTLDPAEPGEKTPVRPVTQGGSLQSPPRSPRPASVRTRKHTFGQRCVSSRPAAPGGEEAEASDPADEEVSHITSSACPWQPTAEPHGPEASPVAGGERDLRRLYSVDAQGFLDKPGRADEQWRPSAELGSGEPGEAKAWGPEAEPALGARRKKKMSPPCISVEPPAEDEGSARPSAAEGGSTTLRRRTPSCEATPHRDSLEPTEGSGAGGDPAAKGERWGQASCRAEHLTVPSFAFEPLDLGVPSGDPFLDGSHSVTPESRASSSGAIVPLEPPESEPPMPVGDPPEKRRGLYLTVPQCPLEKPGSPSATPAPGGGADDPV

[6] = target: T1, Short transient receptor potential channel 4; assay: calcium entry via TRPC4 opening agents – cell-based, HEK293 TRPC4/mu-opioid, Fluo-4 calcium, dose response (AID 434937); format: functional
[7] = target: T4, DNA repair protein RAD52 homolog (Homo sapiens, UniProt P43351); format: functional, biochemical
T4 sequence (P43351 whole entry): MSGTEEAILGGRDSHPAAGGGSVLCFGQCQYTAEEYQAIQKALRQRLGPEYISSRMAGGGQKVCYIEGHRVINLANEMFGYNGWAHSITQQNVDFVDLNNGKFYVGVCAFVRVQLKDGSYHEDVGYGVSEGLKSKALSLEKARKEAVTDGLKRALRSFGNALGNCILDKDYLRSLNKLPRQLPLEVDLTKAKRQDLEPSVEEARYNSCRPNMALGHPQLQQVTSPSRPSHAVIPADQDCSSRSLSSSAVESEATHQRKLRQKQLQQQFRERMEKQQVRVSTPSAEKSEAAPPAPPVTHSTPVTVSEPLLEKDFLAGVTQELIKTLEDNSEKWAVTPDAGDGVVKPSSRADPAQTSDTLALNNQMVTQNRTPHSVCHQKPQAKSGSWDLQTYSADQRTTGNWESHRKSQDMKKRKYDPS

[8] = target: T5, DNA repair and recombination protein RAD54-like (Homo sapiens, UniProt Q92698); assay: RAD54 Holliday junction migration blockers – biochemical, fluorescence, cherry-picked samples, dose series, confirmation (AID 651657); format: functional
T5 sequence (Q92698 whole entry): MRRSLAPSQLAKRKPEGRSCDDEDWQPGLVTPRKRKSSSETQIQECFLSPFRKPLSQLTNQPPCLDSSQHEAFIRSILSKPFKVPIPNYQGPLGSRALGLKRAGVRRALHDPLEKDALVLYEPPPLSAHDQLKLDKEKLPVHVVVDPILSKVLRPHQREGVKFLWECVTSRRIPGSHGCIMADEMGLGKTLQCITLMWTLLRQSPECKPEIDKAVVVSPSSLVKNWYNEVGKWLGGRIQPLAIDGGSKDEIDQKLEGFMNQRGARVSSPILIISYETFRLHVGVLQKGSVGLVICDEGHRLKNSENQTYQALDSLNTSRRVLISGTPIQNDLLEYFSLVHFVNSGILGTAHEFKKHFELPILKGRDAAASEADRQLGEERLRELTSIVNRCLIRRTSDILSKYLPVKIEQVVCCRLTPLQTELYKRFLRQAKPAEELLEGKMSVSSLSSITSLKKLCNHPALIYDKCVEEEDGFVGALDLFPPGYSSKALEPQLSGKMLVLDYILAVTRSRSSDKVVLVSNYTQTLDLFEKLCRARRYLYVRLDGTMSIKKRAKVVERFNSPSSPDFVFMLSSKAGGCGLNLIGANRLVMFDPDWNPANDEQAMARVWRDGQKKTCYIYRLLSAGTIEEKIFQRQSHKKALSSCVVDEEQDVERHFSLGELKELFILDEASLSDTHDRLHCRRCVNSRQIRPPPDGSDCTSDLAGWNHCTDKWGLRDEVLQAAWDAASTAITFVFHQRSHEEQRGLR

[9] = target: T6, Corticotropin-releasing factor receptor 2/Corticotropin-releasing factor-binding protein (Homo sapiens, UniProt P24387+Q13324); assay: activators of CRF receptor 2 with binding protein – uHTS hits, confirmation (AID 602473); format: functional; settings: read-out: EC50_Mean
T6 sequence (Q13324 whole entry): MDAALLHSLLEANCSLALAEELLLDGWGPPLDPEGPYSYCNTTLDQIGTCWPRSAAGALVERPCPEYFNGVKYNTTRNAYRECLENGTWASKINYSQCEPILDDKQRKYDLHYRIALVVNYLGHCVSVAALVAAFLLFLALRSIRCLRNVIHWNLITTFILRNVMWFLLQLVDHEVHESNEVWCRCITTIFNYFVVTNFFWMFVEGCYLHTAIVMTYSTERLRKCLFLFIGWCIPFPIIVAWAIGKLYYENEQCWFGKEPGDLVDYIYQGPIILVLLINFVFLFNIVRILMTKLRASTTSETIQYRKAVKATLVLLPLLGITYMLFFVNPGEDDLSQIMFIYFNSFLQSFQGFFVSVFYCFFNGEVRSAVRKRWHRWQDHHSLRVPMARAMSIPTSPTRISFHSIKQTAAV
T6 sequence (P24387 whole entry): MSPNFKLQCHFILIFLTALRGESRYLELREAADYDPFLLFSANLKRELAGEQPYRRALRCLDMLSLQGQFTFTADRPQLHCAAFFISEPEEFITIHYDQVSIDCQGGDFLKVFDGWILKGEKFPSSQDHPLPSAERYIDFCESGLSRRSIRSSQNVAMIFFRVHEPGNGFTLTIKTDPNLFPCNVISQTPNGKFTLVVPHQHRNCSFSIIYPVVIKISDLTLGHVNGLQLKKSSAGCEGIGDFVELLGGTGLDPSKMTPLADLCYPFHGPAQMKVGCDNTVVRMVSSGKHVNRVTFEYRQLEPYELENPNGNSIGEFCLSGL

[10] = target: Cytochrome P450 2C19 (Homo sapiens, UniProt P33261); assay: Cytochrome panel assay with activity outcomes. Panel member name: p450-cyp2c19 Compounds with AC50 equal or less than 10 uM are considered active; format: functional; settings: read-out: AC50
[11] = target: Cytochrome P450 2C9 (Homo sapiens, UniProt P11712)
[12] = NIH3T3 cell viability loss – ATP luminescence, mouse fibroblasts, counter-screen, dose response (AID 2010); format: functional, cell-based;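 note: cells exposed to compound for about 90 hours before reading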
[13] = Trypanosoma cruzi growth suppression in host cells – NIH3T3 host cells, beta-gal luminescence, confirmation (AID 2044); format: functional, cell-based;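 note: intracellular parasites grown in NIH/3T3 mouse fibroblasts as host cells; luminescent beta-galactosidase reporter signal from transgenic T. cruzi replicating inside host cells; inhibitors lower the luminescence signal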
[14] = test system: Vero; assay: cells; format: functional; settings: Chlorocebus sabaeus

Compound: O=C(NC1CCCCC1)N1CCN(C(c2ccccc2)c2ccccc2)CC1
- EC50 [1]: 1.5 µM (active)

Compound: COc1ccc(C(=O)NC(C)CCc2ccccc2)cc1[N+](=O)[O-] (centres undefined)
- IC50 [2]: 9.58 µM (active)
- IC50 [3]: 13.4 µM (active)

Compound: CCCN(c1nc(C)cc(OC)n1)S(=O)(=O)c1ccccc1
- EC50 [1]: 2.11 µM (active)

Compound: CCCCN(C)C(=O)C1CCN(Cc2ccc(OCc3ccccc3)cc2)CC1
- IC50 [4]: 204 µM (active)
- EC50 [5]: 7.3 µM (active)

Compound: COCCn1nnnc1C(c1cccs1)N1CCN(c2cccc(C(F)(F)F)c2)CC1 (centres undefined)
- EC50 [5]: 97.8 µM (active)

Compound: CCn1c(N2CCN(C(S)=NCCc3ccccc3)CC2)nc2ccccc21
- EC50 [6]: 0.376 µM (active)

Compound: CCCN1CCN(C(S)=Nc2ccc3nc(N4CCN(CC)CC4)cc(C)c3c2)CC1
- AC50 [7]: 15.3 µM (active)
- AC50 [8]: 82.8 µM (active)

Compound: CCC(SC1=N/C(=C/c2ccccc2OC)C(=O)N1c1ccccc1)C(=O)Nc1cc(C)on1 (centres undefined)
- EC50 [5]: 4.23 µM (active)

Compound: COc1ccc(/C=C(/NC(=O)c2ccc([N+](=O)[O-])cc2)C(=O)NCCCN(C)C)cc1
- IC50 [2]: 3.13 µM (active)
- IC50 [3]: 5.03 µM (active)

Compound: O=C1c2ccccc2S(=O)(=O)c2cc(C(=O)N(c3ccccn3)c3ccccn3)ccc21
- EC50 [6]: 1.88 µM (active)
- EC50 [9]: 4.15 µM (active)

Compound: COC(=O)[C@@]1(Cc2ccc(F)cc2)[C@H]2c3cc(C(=O)N(C)C)n(CCc4ccccn4)c3C[C@H]2CN1C(=O)c1ccccc1
- EC50 [6]: 5.96 µM (active)
- AC50 [10]: 39.8 µM (inconclusive)
- AC50 [11]: 10 µM (inconclusive)

Compound: CN(C)CCN(C(=O)CN1C(=O)c2ccccc2C1=O)c1nc2cc3c(cc2s1)OCO3
- AC50 [7]: 23.9 µM (active)
- AC50 [8]: 41.5 µM (active)

Compound: Cc1ccccc1Cn1nc(C)c(NC(=O)c2noc3c2CCc2ccccc2-3)c1C
- EC50 [5]: 1.92 µM (active)

Compound: CN(C)CCCN(C(=O)c1ccc(C(=O)c2ccccc2)cc1)c1nc2ccc(F)cc2s1
- EC50 [6]: 5.96 µM (active)
- EC50 [12]: > 60 µM (not active)
- EC50 [13]: 0.104 µM (active)

Compound: Cc1c([N+](=O)[O-])cc(C(=O)Nc2ccc(Cc3ccncc3)cc2)cc1[N+](=O)[O-]
- IC50 [2]: 8.08 µM (active)
- EC50 [12]: > 60 µM (not active)
- IC50 [3]: 7.27 µM (active)
- EC50 [13]: 0.799 µM (active)

Compound: CCOc1ccccc1CN1CCNC(=O)C1CC(=O)NCCc1ccccn1 (centres undefined)
- EC50 [6]: 5.96 µM (active)

Compound: COc1ccc(-c2noc(CSc3nnc(Cc4ccccc4)n3-c3cccc(C)c3)n2)cc1OC
- EC50 [5]: 4.35 µM (active)

Compound: Cc1nn(Cc2ccc(Cl)c(Cl)c2)c(C)c1NC(=O)c1cn(-c2ccccc2)nc1-c1ccccc1
- EC50 [5]: 5.29 µM (active)
- EC50 [12]: > 60 µM (not active)
- EC50 [13]: 1.99 µM (active)

Compound: COc1ccc2cc3cc(C(=O)NCCCN4CCC(C)CC4)oc3nc2c1
- AC50 [8]: 29.2 µM (active)

Compound: COc1ccc(C(CNC(=O)Cc2cccs2)N(C)C)cc1 (centres undefined)
- EC50 [6]: 0.237 µM (active)

Compound: CCN(CC)CC(O)c1ccc2ccc3ccc(O)cc3c2c1 (centres undefined)
- AC50 [7]: 7.92 µM (active)
- AC50 [8]: 23.3 µM (active)
- CC50 [14]: > 25 µM (active)

Compound: CCOc1ccc(NC(=O)c2cc([N+](=O)[O-])ccc2N2CCOCC2)cc1
- IC50 [2]: 13.7 µM (active)
- IC50 [3]: 13.4 µM (active)

Compound: COc1ccc2[nH]c3c(c2c1)CCN1C(=O)C(CC(=O)NCc2ccco2)C[C@H](C(=O)N2CCOCC2)[C@@]31CCC1CCCC1 (some centres undefined)
- IC50 [2]: 4.73 µM (active)
- IC50 [3]: 5.98 µM (active)

Compound: COc1ccc(Cl)cc1-c1cc(C(=O)NCc2cccc(Cl)c2)[nH]n1
- IC50 [2]: 5.46 µM (active)
- IC50 [3]: 12.4 µM (active)
